A melting point compilation (Tetko et al.)

Compound	melting point [°C]
Cc1cc(C)c2ccccc2c1C	55.5
C#CCC(C)(C)C	-75
Nc1cccc2cc(O)ccc12	191
Oc1ccc(Cl)nc1	155
CCC(C)S (stereo not drawn)	-165
OCc1ccc(SC(F)(F)F)cc1	52
CCOC(=O)C(C#N)=Cc1ccccc1	51
Cc1cc(CCl)c(CCl)cc1C	104 to 106
CC(C)(C)C(=O)Oc1ccc([N+](=O)[O-])cc1	92 to 96
O=S(=O)(O)c1ccc2cc(O)ccc2c1	125
Brc1c2ccccc2c(Br)c2ccccc12	226
N#Cc1ccc2ccccc2n1	95
CCN1CC2(COC)C(O)CC(OC)C34C5CC6(O)C(O)C5C(O)(C(O)C6OC)C(C(OC)C23)C14 (stereo not drawn)	132
Cc1cc(C)c(C#N)c(C)c1	53
COC(=O)CC(C)=O	27.5
O=C(Cl)c1sccc1Br	65 to 67
CN1CCN(Cc2ccc(CO)cc2)CC1	96 to 98
NC(Cc1ccc(F)cc1F)C(=O)O (racemic)	224 to 226
CN(C)c1ccc(C=CC(=O)O)cc1	225 to 228
COCC(=O)N(c1c(C)cccc1C)N1CCOC1=O	104
O=[N+]([O-])c1cc(Cl)ccc1Sc1ccccc1	82 to 84
Cc1cc(O)c(C(=O)c2ccccc2)cc1Cl	138 to 142
Brc1cccc(Oc2ccc(Br)c(Br)c2)c1	< 20
CN1C(c2cccnc2)N(C)[C@@H](c2ccccc2)[C@@H]1c1ccccc1	99 to 102
Cc1nn(C)c2ncc(C(N)=O)c(Cl)c12	275
Cc1ccc2ccc3ccc(C)cc3c2c1	145
CCCCCCCCCC(O)CC (stereo not drawn)	25

Compound	melting point [°C]
Cc1ccc(S(=O)(=O)NCCN(CCN(CCNS(=O)(=O)c2ccc(C)cc2)S(=O)(=O)c2ccc(C)cc2)S(=O)(=O)c2ccc(C)cc2)cc1	112
CC(=CC=Cc1ccccc1)C(=O)OC(=O)C(C)=CC=Cc1ccccc1	112 to 113
Cc1ccccc1NN=C1C(=O)NC(=O)NC1=O	265
Nc1c(F)c(F)nc(F)c1F	86
O=C(O)C[C@H](C(=O)O)c1ccccc1	173 to 176
Nc1cc(N)nc(N)n1	250
O=[N+]([O-])c1ccc(O)c2ccccc12	166
NC(N)=NCCCCCCCCNCCCCCCCCN=C(N)N	60
Nc1nccc(-c2ccncc2)n1	81.3
Cc1nc(-c2cccc(N)c2)cs1	101 to 103
COc1cccc(C#N)c1	23
COc1cc(Br)cc(Br)c1	41.5
FC(F)(F)C(F)(F)C(F)(F)I	-95
O=C(O)c1ccc(-c2ccccc2F)cc1	234 to 236
Cc1ccc(Cl)cc1NC(N)=S	160 to 161
CC12CCC(O)CC1CCC1C2CC(O)C2(C)C(C3=CC(=O)OC3)CCC12O (stereo not drawn)	222
O=C(Cl)c1ncoc1-c1ccccc1	74 to 79
Cc1cc(O)cc(C)c1C#N	176 to 177
CC(C)(C)c1cc([N+](=O)[O-])c(O)c([N+](=O)[O-])c1	95
O=C(O)c1cc(I)cc(I)c1I	223 to 228
N#Cc1c(F)cccc1OCC(F)(F)F	88 to 90
Nc1ccc(-n2cccn2)cc1	54 to 55
O=C(O)c1ccc(Oc2ccccc2)cc1	162
c1ccc(-c2cccc3ccccc23)cc1	45
CC(C)(C)N(NC(=O)c1ccccc1)C(=O)c1ccccc1[N+](=O)[O-]	182
CC(=O)Nc1ccccc1C(=O)CCl	112 to 113
O=C(OC(C(=O)O)C(OC(=O)c1ccccc1)C(=O)O)c1ccccc1 (stereo not drawn)	155

Compound	melting point [°C]
CC1=C(C(=O)OCc2ccccc2)C(c2ccccc2)NC(=S)N1 (stereo not drawn)	175
CC(C)(C)c1cc(C(F)(F)F)nc(N)n1	48 to 50
CCOC(CCl)OCC	-45
CC(C=Cc1ccccc1)=NO	116 to 120
FC(F)(F)c1ccc(Cl)c(Br)c1	-23 to -22
CC1(C)SC2C(N)C(=O)N2C1C(=O)O (stereo not drawn)	198 to 200
CC(=O)OOC(C)=O	30
CC(C)C[N+](=O)[O-]	-76.8
COc1ccc2occc2c1	31 to 33
C=CCC1(CC(C)C)C(=O)NC(=O)NC1=O	138
CCCCCCCCCCCCN	28.3
COC1=CC2C3Cc4ccc(OC)c(O)c4C2(CCN3C)CC1=O (stereo not drawn)	162
C=CC(Cl)CCl (stereo not drawn)	-61
FC(F)(F)c1ccc(=S)[nH]c1	159 to 160
C/C(=N\Nc1ccc([N+](=O)[O-])cc1)c1nc2c(ccc3ccccc32)nc1C	271
CCCCC(C)C(C)C (stereo not drawn)	-116
O=C(CF)c1ccccc1	29
CC(=O)OC1CCC2(C)C(=CCC3C4CCC(=O)C4(C)CCC32)C1 (stereo not drawn)	147
N[C@H](CCCCP(=O)(O)O)C(=O)O	215 to 220
OCc1ccc(-c2ccco2)cc1	85 to 86
N#CCNCC#N	77
O=S(=O)(Nc1ccc(F)cc1C(F)(F)F)C(F)(F)F	45
Cc1cc(C)c(CS)c(C)c1	47
CC(=Nc1ccc(N=Nc2ccccc2)cc1)c1c(O)c2ccccc2n(-c2ccccc2)c1=O	191
CC(C)c1ccccc1	-96
Oc1cc(Cl)c(-c2ccccc2)nn1	235 to 236

Continued, values first:

melting point [°C]	Compound
133 to 136	N#Cc1cccc(N2CCCCC2)c1
135 to 136	Cc1ccc(C)n1-c1ccsc1C(=O)NN
246	C=C1C(=O)C23C4CC5C(C)(C)CCC(OC(C)=O)C5(C)C2C(OC(C)=O)CC1(O)C3OC(C)(C)O4 (stereo not drawn)
116	O=C(OCC(=O)N1CCC[C@H]1C(=O)O)c1ccccc1
102	COc1ccc2c(=O)c(=O)c2c1
69 to 72	OC1CC(O)C(O)CO1 (stereo not drawn)
74 to 76	OCc1cccnc1N1CCCC1
182 to 184	Cc1nccn1-c1cccc(C(=O)O)c1
240	Cn1c(=O)c(C2=NNC(=O)C2=NNc2cccc(Br)c2)c(O)c2ccccc21
141	N#CC1(c2ccccc2)Cc2ccccc2C(=O)O1 (stereo not drawn)
143	CC(=O)c1c2c(c(C(C)=O)c3c1CCCN3)NCCC2
166	COC(=O)C1(C(=O)OC)Cc2c(C)c(C)c(C)c(C)c2C(=O)O1
117 to 119	CC(=O)c1ccc(O)c(O)c1
81	Cc1cc(C#N)ccc1[N+](=O)[O-]
188 to 192	O=C(Oc1c(Cl)cc(Cl)cc1Cl)C(=O)Oc1c(Cl)cc(Cl)cc1Cl
12.5	CCCCCCCCCCCCC1CCCCC1
100 to 103	Cc1onc(-c2c(Cl)cccc2Cl)c1C=O
254 to 258	O=C(O)c1cc2cc(F)ccc2[nH]1
39	O=C1CCC(F)(F)CC1
233	O=C1c2[nH]c3ccc(Br)cc3c2CCN1Cc1ccc(Cl)cc1
141 to 142	NNC(=O)c1ccc(F)cc1F
195	CCCCC(=O)OCC(=O)C1C(C)CC2C3CC(F)C4=CC(=O)C=CC4(C)C3(F)C(O)CC21C (stereo not drawn)
355 to 357	O=C1OC(=O)[C@H]2[C@@H]1[C@@H]1C3C=CC([C@H]21)[C@H]1C(=O)OC(=O)[C@@H]31
79 to 83	Brc1ccc2c(c1)OCCOCCOCCOCCOCCO2
65 to 68	O=S(=O)(Cl)Cc1ccc(Cl)c(Cl)c1
118	Oc1ccc(C2SCCS2)cc1
181	CCN(CC)C(=O)C1=C(C)NC(=O)NC1c1ccccc1 (stereo not drawn)

melting point [°C]	Compound
29	C=Cc1ccccc1OC
220	Nc1ccc(Br)cc1C(=O)O
124 to 128	Cc1nc(C2CCN(C(=O)OC(C)(C)C)CC2)sc1C(=O)O
196	CC(C=CC=C(C)C=CC1=C(C)CC(O)CC1(C)C)=CC=CC=C(C)C=CC=C(C)C=CC1C(C)=CC(O)CC1(C)C (stereo not drawn)
174 to 178	O=C1CC(=O)CC(c2ccc(F)cc2)C1
60 to 62	CNCc1ccc(N2CCN(C(=O)OC(C)(C)C)CC2)cc1
167	NS(=O)(=O)c1cccc([N+](=O)[O-])c1
38.5	CCC(=O)C=Cc1ccccc1
110	Cc1ccc(C(=O)O)o1
101 to 108	O=C(c1ccc2ccccc2c1)C(Br)c1ccccc1 (stereo not drawn)
292	O=C(O)c1cc(I)c(I)c(I)c1
176	CC1=C(C(=O)OCCC(C)C)C(c2ccco2)NC(=O)N1 (stereo not drawn)
159	Cn1c2cc(N3CCCC3)cc(-c3ccccc3)c2c(=O)n1-c1ccccc1
53 to 55	O=Cc1ccc(C(F)(F)F)nc1
102	O=S(=O)(O)c1ccc(Cl)cc1
222	NC(CC(=O)O)c1ccccc1 (racemic)
110	O=C(O)Cc1csc2ccccc12
259 to 260	CC1(C)OC(=O)C(=NNc2ccc(Br)cc2)C(=O)O1
189	Cc1[nH]c2ccc([N+](=O)[O-])cc2c1C
160 to 163	c1ccc(C2=NCCN=C2c2ccccc2)cc1
62 to 65	O=C1CCSCC1
169 to 170	Nc1ccc(S(=O)(=O)N2CCCCC2)cc1
58 to 61	Nc1ccccc1OC1CCOCC1
122 to 124	CC1=NN(CN2CCCCC2)C(=O)/C1=N\Nc1ccc(Cl)cc1Cl
15	Cc1cnc(C)cn1
37	Cc1cccc(C(C)(C)C)c1N=C=O
